Active and inactive are the calls of the source. The rule behind the calls is not given here.
Legend:
[1] = target: T1, BDNF/NT-3 growth factors receptor (Homo sapiens, UniProt Q16620); conditions: BaF3, dose 0.3-200 nM, time 6.0 hrs
[2] = target: Muscle, skeletal receptor tyrosine-protein kinase (Homo sapiens, UniProt O15146); test: Binding affinity to wild-type human partial length MUSK (M553 to V869 residues) expressed in bacterial expression system by Kinomescan method relative to control
BaF3 [3] = test: Antiproliferative activity against mouse BaF3 cells transfected with wild type ETV6-NTRK3 (unknown origin) harbouring G623R mutation assessed as cell viability measured after 72 hrs by Micro plate reader method; assay type: functional, cell-based; conditions: BaF3, 72 h
[4] = target: Proto-oncogene tyrosine-protein kinase ROS (Homo sapiens, UniProt P08922); test: Binding affinity to wild-type human partial length ROS1 (A1921 to N2240 residues) expressed in bacterial expression system by Kinomescan method relative to control
[5] = system: Receptor-type tyrosine-protein kinase FLT3 (Homo sapiens), P36888 [N841I]; test: Binding affinity to FLT3 N841I mutant (unknown origin)
[6] = Half life in Sprague-Dawley rat at 2 mg/kg, iv measured after 24 hrs by LC-MS/MS analysis; assay type: ADME, organism-based; conditions: in vivo
BaF3 [7] = test: Antiproliferative activity against mouse BaF3 cells assessed as cell viability measured after 72 hrs by Micro plate reader method; assay type: functional, cell-based; conditions: BaF3, 72 h
BaF3 [8] = test: Antiproliferative activity against mouse BaF3 cells transfected with wild type CD74-NTRK1 (unknown origin) harbouring G595R mutation assessed as cell viability measured after 72 hrs by Micro plate reader method; assay type: functional, cell-based; conditions: BaF3, 72 h
[9] = target: T2, High affinity nerve growth factor receptor (Homo sapiens, UniProt P04629); test: Inhibition of TrkA (unknown origin) in mouse BaF3 cells transfected with wild type CD74-NTK1 assessed as inhibition of PLCgamma 1 expression measured after 6 hrs by Western blot assay; assay type: cell-based
[10] = target: T1, BDNF/NT-3 growth factors receptor; conditions: BaF3, dose 0.3-200 nM, time 6.0 hrs; remark: listed apart in the source
[11] = target: Proto-oncogene tyrosine-protein kinase receptor Ret (Homo sapiens, UniProt P07949); test: Binding affinity to wild-type human partial length RET (E713 to D1014 residues) expressed in bacterial expression system by Kinomescan method relative to control
BaF3 [12] = test: Antiproliferative activity against mouse BaF3 cells transfected with wild type CD74-NTRK1 (unknown origin) harbouring G667C mutation assessed as cell viability measured after 72 hrs by Micro plate reader method; assay type: functional, cell-based; conditions: BaF3, 72 h
[13] = target: T1, BDNF/NT-3 growth factors receptor; conditions: BaF3, dose 0.3-200 nM, time 6.0 hrs; remark: listed apart in the source
BaF3 [14] = test: Antiproliferative activity against mouse BaF3 cells transfected with wild type CD74-NTRK1 (unknown origin) assessed as cell viability measured after 72 hrs by Micro plate reader method; conditions: BaF3, 72 h
[15] = target: NUAK family SNF1-like kinase 1 (Homo sapiens, UniProt O60285); test: Binding affinity to wild-type human partial length ARK5 (E25 to I332 residues) expressed in bacterial expression system by Kinomescan method relative to control
[16] = target: T2, High affinity nerve growth factor receptor; test: Inhibition of TrkA (unknown origin) in mouse BaF3 cells transfected with wild type […] assessed as inhibition of PLCgamma 1 phosphorylation measured after 6 hrs by Western blot assay; assay type: cell-based; conditions: dose 0.3-200 nM
[17] = Cmax in Sprague-Dawley rat at 10 mg/kg, po measured after 24 hrs by LC-MS/MS analysis; assay type: ADME, organism-based; parameters: route oral, dose 10 mg/kg, time 24 hrs; conditions: in vivo
[18] = system: Receptor-type tyrosine-protein kinase FLT3 (Homo sapiens), P36888 [K663Q]; test: Binding affinity to FLT3 K663Q mutant (unknown origin)
[19] = target: T1, BDNF/NT-3 growth factors receptor; conditions: BaF3, dose 0.3-200 nM, time 6.0 hrs; remark: listed apart in the source
[20] = Cmax in Sprague-Dawley rat at 2 mg/kg, iv measured after 24 hrs by LC-MS/MS analysis; assay type: ADME, organism-based; parameters: route intravenous, time 24 hrs, dose 2 mg/kg; conditions: in vivo
BaF3 [21] = test: Antiproliferative activity against mouse BaF3 cells transfected with wild type ETV6-NTRK2 (unknown origin) harbouring G639R mutation assessed as cell viability measured after 72 hrs by Micro plate reader method; assay type: functional, cell-based; conditions: BaF3, 72 h
[22] = target: Tyrosine-protein kinase JAK2 (Homo sapiens, UniProt O60674); test: Binding affinity to wild-type human partial length JAK2 JH1 catalytic domain (A829 to G1132 residues) expressed in mammalian expression system by Kinomescan method relative to control
[23] = target: Tyrosine-protein kinase JAK1 (Homo sapiens, UniProt P23458); test: Binding affinity to wild-type human partial length JAK1 JH1 catalytic domain (V856 to K1154 residues) expressed in bacterial expression system by Kinomescan method relative to control
[24] = system: Receptor-type tyrosine-protein kinase FLT3 (Homo sapiens), P36888 [D835H]; test: Binding affinity to FLT3 D835H mutant (unknown origin)
[25] = target: T1, BDNF/NT-3 growth factors receptor; conditions: BaF3, dose 0.3-200 nM, time 6.0 hrs; remark: listed apart in the source
[26] = target: Fibroblast growth factor receptor 1 (Homo sapiens, UniProt P11362); test: Binding affinity to wild-type human partial length FGFR1 (P357 to V669 residues) expressed in bacterial expression system by Kinomescan method relative to control
Focal adhesion kinase 1 = Focal adhesion kinase 1 (Homo sapiens, UniProt Q05397); test: Binding affinity to wild-type human partial length FAK (D402 to R696 residues) expressed in bacterial expression system by Kinomescan method relative to control
[27] = AUC (0 to infinity) in Sprague-Dawley rat at 10 mg/kg, po measured after 24 hrs by LC-MS/MS analysis; assay type: ADME, organism-based; parameters: route oral, dose 10 mg/kg, time 24 hrs; conditions: in vivo
[28] = target: Phosphorylase b kinase gamma catalytic chain, skeletal muscle/heart isoform (Homo sapiens, UniProt Q16816); test: Binding affinity to wild-type human full length PHKG1 (M1 to Y387 residues) expressed in bacterial expression system by Kinomescan method relative to control
[29] = target: ALK tyrosine kinase receptor (Homo sapiens, UniProt Q9UM73); test: Binding affinity to wild-type human partial length ALK (I1088 to E1409 residues) expressed in mammalian expression system by Kinomescan method relative to control
[30] = target: T1, BDNF/NT-3 growth factors receptor; conditions: BaF3, dose 0.3-200 nM, time 6.0 hrs; remark: listed apart in the source
[31] = target: T2, High affinity nerve growth factor receptor; test: Inhibition of TrkA (unknown origin) in mouse BaF3 cells transfected with wild type CD74-NTK1 assessed as inhibition of AKT phosphorylation measured after 6 hrs by Western blot assay; assay type: cell-based; conditions: dose 0.3-200 nM
[32] = system: Proto-oncogene tyrosine-protein kinase receptor Ret (Homo sapiens), P07949 [M918T]; test: Binding affinity to RET M918T mutant (unknown origin)
[33] = target: Tyrosine-protein kinase JAK3 (Homo sapiens, UniProt P52333); test: Binding affinity to wild-type human partial length JAK3 JH1 catalytic domain (I781 to S1124 residues) expressed in mammalian expression system by Kinomescan method relative to control
[34] = Oral bioavailability in Sprague-Dawley rat at 10 mg/kg measured after 24 hrs by LC-MS/MS analysis; assay type: ADME, organism-based; conditions: in vivo

T1 sequence (Q16620 32-822 limits assumed): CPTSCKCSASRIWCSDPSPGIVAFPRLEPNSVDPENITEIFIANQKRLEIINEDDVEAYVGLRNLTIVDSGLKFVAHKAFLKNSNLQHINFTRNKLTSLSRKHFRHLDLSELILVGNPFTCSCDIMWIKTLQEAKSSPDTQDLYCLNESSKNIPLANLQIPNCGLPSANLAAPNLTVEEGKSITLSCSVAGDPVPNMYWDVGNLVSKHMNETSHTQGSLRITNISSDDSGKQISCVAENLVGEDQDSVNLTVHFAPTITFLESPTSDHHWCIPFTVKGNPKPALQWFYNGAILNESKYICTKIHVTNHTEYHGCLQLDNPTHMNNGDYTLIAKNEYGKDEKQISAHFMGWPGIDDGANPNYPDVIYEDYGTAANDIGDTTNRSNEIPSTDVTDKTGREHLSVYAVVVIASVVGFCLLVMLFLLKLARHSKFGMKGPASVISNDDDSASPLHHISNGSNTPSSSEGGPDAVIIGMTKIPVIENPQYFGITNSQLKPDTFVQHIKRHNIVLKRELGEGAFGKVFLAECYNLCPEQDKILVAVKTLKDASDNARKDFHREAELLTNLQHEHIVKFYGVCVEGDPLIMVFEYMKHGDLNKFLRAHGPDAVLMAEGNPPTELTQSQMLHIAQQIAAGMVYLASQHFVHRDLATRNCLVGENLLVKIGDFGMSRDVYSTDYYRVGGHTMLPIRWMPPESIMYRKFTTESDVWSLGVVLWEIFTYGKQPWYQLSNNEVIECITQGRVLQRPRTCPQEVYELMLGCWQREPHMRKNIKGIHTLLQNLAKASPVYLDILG
T2 sequence (P04629 33-796 limits assumed): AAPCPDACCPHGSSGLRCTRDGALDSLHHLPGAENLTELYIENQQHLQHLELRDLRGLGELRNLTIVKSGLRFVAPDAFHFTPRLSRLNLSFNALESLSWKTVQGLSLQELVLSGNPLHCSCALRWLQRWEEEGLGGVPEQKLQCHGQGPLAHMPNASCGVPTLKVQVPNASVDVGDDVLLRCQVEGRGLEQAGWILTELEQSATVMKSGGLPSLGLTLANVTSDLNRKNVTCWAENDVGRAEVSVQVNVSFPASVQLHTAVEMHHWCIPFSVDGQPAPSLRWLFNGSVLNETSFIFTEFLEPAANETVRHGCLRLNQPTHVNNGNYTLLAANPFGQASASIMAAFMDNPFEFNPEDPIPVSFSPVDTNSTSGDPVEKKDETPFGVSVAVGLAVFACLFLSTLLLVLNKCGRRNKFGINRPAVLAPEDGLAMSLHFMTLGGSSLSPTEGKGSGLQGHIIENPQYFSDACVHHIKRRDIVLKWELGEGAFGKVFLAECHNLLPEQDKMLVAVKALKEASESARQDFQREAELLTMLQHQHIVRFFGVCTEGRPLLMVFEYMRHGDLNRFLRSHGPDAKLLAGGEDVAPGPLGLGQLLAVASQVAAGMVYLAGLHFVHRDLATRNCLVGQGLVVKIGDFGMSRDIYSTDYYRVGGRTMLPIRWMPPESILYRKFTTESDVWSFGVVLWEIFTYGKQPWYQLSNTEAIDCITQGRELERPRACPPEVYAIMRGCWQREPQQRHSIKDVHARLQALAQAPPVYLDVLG
Proto-oncogene tyrosine-protein kinase ROS, sequence (P08922 whole entry, the tested form may be a part): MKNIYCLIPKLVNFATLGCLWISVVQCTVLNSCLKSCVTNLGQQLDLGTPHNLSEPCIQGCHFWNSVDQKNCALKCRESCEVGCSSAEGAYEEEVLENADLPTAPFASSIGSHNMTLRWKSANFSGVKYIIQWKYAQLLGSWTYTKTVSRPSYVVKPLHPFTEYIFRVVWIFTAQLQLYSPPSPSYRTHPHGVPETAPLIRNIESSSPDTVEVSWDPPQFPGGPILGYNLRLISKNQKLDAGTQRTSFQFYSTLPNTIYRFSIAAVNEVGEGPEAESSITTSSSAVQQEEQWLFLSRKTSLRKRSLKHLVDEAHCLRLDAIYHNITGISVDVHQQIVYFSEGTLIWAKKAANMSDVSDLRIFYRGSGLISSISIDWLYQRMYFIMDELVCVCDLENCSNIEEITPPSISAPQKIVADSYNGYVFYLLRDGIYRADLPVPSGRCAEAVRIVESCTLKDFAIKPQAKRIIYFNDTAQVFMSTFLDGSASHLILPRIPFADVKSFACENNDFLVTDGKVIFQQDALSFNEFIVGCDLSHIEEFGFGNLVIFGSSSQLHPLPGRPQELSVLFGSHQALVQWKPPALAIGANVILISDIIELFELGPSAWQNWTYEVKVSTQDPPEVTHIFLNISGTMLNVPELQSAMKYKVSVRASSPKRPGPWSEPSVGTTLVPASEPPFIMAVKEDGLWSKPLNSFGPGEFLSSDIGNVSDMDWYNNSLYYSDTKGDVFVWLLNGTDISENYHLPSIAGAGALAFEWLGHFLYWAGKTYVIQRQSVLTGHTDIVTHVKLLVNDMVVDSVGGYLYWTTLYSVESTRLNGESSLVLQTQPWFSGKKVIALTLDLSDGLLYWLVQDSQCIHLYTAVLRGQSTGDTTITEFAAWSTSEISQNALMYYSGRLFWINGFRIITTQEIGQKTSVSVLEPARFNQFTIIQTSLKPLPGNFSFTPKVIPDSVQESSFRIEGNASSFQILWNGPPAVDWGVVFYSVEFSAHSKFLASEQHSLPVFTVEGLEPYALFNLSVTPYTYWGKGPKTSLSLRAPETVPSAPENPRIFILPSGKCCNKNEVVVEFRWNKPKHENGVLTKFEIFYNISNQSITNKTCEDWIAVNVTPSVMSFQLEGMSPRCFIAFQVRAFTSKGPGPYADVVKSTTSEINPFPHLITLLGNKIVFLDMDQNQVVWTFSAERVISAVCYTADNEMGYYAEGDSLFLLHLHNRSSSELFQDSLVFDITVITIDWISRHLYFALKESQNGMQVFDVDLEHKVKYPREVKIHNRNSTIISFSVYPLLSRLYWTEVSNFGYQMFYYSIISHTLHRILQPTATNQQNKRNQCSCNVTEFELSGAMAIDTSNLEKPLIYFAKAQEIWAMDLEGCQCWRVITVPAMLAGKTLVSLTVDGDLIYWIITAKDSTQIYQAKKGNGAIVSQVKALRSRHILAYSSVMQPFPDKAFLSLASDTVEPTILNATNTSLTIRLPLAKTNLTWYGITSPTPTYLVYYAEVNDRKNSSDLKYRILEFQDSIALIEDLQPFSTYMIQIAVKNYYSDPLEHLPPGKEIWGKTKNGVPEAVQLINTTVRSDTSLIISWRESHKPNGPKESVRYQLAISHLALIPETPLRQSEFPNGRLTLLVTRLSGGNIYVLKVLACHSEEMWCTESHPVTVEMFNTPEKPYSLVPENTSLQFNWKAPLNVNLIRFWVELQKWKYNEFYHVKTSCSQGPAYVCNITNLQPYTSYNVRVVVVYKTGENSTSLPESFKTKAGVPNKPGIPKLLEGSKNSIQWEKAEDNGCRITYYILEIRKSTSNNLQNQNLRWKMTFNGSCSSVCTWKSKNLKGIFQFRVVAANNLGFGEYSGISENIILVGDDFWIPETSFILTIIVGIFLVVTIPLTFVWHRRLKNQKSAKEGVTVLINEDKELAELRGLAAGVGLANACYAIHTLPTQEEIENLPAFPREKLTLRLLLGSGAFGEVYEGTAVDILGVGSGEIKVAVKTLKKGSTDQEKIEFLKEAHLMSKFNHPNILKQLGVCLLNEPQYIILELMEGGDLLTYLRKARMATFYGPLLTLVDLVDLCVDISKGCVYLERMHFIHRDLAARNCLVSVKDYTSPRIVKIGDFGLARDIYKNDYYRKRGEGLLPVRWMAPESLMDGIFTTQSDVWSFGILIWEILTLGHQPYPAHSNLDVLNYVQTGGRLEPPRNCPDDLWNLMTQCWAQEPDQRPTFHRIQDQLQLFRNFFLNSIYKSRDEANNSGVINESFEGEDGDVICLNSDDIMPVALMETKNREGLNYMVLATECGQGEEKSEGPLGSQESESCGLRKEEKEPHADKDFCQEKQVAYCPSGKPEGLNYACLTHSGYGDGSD
Phosphorylase b kinase gamma catalytic chain, skeletal muscle/heart isoform, sequence (Q16816 whole entry, the tested form may be a part, canonical isoform): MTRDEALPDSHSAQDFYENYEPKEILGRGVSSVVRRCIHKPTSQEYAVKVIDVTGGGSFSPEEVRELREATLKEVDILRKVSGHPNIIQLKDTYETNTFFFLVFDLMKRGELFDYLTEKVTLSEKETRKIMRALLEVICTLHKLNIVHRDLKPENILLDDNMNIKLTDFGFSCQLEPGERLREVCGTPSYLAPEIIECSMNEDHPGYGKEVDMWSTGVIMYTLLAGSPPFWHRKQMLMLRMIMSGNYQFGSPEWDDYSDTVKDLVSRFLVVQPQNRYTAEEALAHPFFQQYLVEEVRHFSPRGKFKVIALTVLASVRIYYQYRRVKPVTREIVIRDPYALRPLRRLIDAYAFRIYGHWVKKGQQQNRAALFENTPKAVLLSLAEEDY
NUAK family SNF1-like kinase 1, sequence (O60285 whole entry, the tested form may be a part): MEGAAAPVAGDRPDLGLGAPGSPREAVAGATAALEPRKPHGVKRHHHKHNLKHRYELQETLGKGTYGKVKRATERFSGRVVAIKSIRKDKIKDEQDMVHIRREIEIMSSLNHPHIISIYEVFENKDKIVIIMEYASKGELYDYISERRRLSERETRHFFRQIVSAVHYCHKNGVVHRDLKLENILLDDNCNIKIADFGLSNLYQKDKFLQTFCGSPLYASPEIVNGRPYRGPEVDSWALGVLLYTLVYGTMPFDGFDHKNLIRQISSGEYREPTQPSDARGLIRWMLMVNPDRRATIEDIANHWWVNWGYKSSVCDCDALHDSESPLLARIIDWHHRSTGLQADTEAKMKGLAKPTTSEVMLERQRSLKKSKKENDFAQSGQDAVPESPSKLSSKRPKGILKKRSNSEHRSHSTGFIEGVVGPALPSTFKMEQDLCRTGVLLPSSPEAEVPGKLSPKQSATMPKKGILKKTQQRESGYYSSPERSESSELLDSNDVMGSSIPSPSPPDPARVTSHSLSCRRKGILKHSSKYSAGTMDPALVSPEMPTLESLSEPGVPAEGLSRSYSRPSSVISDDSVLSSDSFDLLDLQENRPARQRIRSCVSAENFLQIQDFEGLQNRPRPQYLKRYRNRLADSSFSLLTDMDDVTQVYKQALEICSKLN

inhibition [1]: Active | Kd [2]: 110 nM | IC50 (BaF3 [3]): 243 nM | Kd [4]: 13 nM | inhibition [5]: Active | half-life [6]: 83.4 min | IC50 (BaF3 [7]): 3.12 µM | IC50 (BaF3 [8]): 144 nM | inhibition [9]: Active | inhibition [10]: Active | Kd [11]: 55 nM | IC50 (BaF3 [12]): 31 nM | inhibition [13]: Active | IC50 (BaF3 [14]): 15 nM | Kd [15]: 140 nM | inhibition [16]: Active | Cmax [17]: 360 nM | inhibition [18]: Active | inhibition [19]: Active | Cmax [20]: 6.77 µM | IC50 (BaF3 [21]): 503 nM | Kd [22]: 5.5 nM | Kd [23]: 130 nM | inhibition [24]: Active | inhibition [25]: Active | Kd [26]: 76 nM | Kd (Focal adhesion kinase 1): 200 nM | AUC(0-inf) [27]: 1.62 µM·h | Kd [28]: 12 nM | Kd [29]: 150 nM | inhibition [30]: Active | inhibition [31]: Active | inhibition [32]: Active | Kd [33]: 170 nM | bioavailability [34]: 8.79%
SMILES: C[C@@H](Nc1ccc2[nH]nc(/C=C/c3ccccn3)c2c1)c1cc(F)cc(F)c1

From ChEMBL document CHEMBL4765391, “Design, synthesis, and Structure-Activity Relationships (SAR) of 3-vinylindazole derivatives as new selective tropomyosin receptor kinases (Trk) inhibitors” (Eur J Med Chem, 2020)
